{"source": "paper PMC7140002", "about": "“Attenuation of Pseudomonas aeruginosa Quorum Sensing by Natural Products: Virtual Screening, Evaluation and Biomolecular Interactions” (International Journal of Molecular Sciences, 2020)", "key": {"[1]": {"target": "T1, LasR (Pseudomonas aeruginosa, UniProt P25084)", "T1 construct": "LasR-LBD", "T1 sequence (P25084 1-173)": "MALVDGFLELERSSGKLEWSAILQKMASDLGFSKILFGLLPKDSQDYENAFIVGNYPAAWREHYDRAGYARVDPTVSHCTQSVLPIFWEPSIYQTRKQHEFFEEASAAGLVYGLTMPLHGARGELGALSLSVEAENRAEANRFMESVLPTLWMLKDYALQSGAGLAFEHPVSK", "assay": "microscale thermophoresis (no fluorescence signal in thermal shift assay)", "type": "binding"}, "[2]": {"target": "T1, LasR", "assay": "microscale thermophoresis", "type": "binding"}}}
{"smiles": "O=C(/C=C/c1ccc(O)c(O)c1)c1ccc(O)cc1O", "note": "[B, Butein]", "values": [{"measurement": "Kd", "setting": "[1]", "result": "3.48 ± 1.63", "unit": "µM"}]}
{"smiles": "O=C1C=C(Br)/C(=C/Br)O1", "note": "[C30, (Z-)-4-Bromo-5-(bromomethylene)-2(5H)-furanone]", "values": [{"measurement": "Kd", "setting": "[2]", "result": "20.4 ± 16", "unit": "µM"}]}
